The text below walks through data of patent US20210085630A1, “PHARMACEUTICAL COMPOSITION AND USE THEREOF IN PREPARING DRUG FOR TREATING TUMOR MULTI-DRUG RESISTANCE” (SICHUAN JIUZHANG BIOLOGICAL SCIENCE AND TECHNOLOGY CO., LTD., priority 2018, published 2021).

The test system of series [1] is CD4+T and CD8+T lymphocytes. Kind of series: Number of CD4+T and CD8+T cells (immunofluorescence), drug-resistant B16 melanoma transplanted tumor. It counts as in vivo. The settings on record: transplanted tumor of drug-resistant B16 melanoma in mice, average of 6 high power fields. On the procedure:
(§1) The number of CD4+T and CD8+T lymphocytes was analyzed by immunofluorescence staining, and the average number of CD4+T and CD8+T cells infiltrated in 6 high power fields was counted.

Series [2] relates to PD-1/PD-L1. Put plainly: PD-1/PD-L1 expression rate in transplanted tumor tissues, multidrug resistance model. Type of series: in vivo. The settings on record: transplanted tumor tissues of B16 melanoma mice with multidrug resistance (as titled), Example 5 regimen. The source says:
(§2) The positive expression rate of PD-1/PD-L1 in tumor tissues was detected by immunohistochemical SP method.

Series [3] concerns dacarbazine-resistant B16 melanoma. Kind of series: Tumor weight and inhibition rate, transplanted dacarbazine-resistant B16 melanoma. It counts as in vivo. Particulars: dacarbazine-resistant B16 melanoma mice; test drug 30 mg/kg i.p. once a day 5 days, then dacarbazine 60 mg/kg every other day; positive drug dacarbazine 60 mg/kg. On the procedure:
B16 melanoma cell lines were induced by the increased gradient concentration of dacarbazine, and established by clone screening and cultured without drug before the experiment.
(§3) After the drug was removed from the drug-resistant cell lines, the cell concentration was adjusted to 1×10^7/ml with the culture medium. 1×10^7/ml of cells were subcutaneously injected into the right armpit of mice, 0.1 ml per mouse.
(§4) After the average diameter of tumor reached […], the mice were randomly divided into test drug group 1, test drug group 2, test drug group 3, test drug group 4, test drug group 5, test drug group 6, positive drug group, and negative group, respectively.
(§5) Test drug group: the test drug group was first intraperitoneally injected, once a day, 30 mg/kg/time, for 5 consecutive days; administration was stopped, and the positive drug was given by intraperitoneal injection on the next day; wherein the positive drug dacarbazine was administrated once every other day, 60 mg/kg/time; wherein the positive drug gemcitabine was given once every other day, 300 mg/kg/time.
(§6) Positive drug group: positive drug dacarbazine was given once every other day, 60 mg/kg/time; positive drug gemcitabine was given once every other day, 300 mg/kg/time.
(§7) Negative group: normal saline was intraperitoneally injected, once a day, for 15 consecutive days.
(§8) After completion of administration, the experiment was stopped, and the mice were killed by cervical dislocation and weighed. The tumor was stripped and weighed, to calculate the tumor inhibition rate.

Series [4] relates to CD4+T and CD8+T lymphocytes. Kind of series: Number of CD4+T and CD8+T cells in Opdivo-resistant Lewis lung cancer mice. It counts as in vivo. Particulars: drug-resistant (Opdivo) Lewis lung cancer mice, average of 6 high power fields. On the procedure: as §1
Series [5] relates to PD-1/PD-L1. Put plainly: PD-1/PD-L1 expression rate in tumor tissues of Opdivo-resistant B16 melanoma mice. Type of series: in vivo. Particulars: tumor tissues of drug-resistant (Opdivo) B16 melanoma mice.
Text: as §2

In series [6] the test system is PD-1/PD-L1. Put plainly: PD-1/PD-L1 expression rate (immunohistochemical SP method), drug-resistant B16 melanoma tumor tissue. It counts as in vivo. The settings on record: transplanted tumor tissues of drug-resistant B16 melanoma in mice, Example 3 regimen.
Text: as §2

The test system of series [7] is CD4+T and CD8+T lymphocytes. Put plainly: Number of CD4+T and CD8+T cells (immunofluorescence), drug-resistant Lewis lung cancer transplanted tumor. The settings on record: transplanted tumor of drug-resistant Lewis lung cancer in mice, average of 6 high power fields. Type of series: in vivo. On the procedure:
as §1

Series [8] relates to PD-1/PD-L1. Put plainly: PD-1/PD-L1 expression rate (immunohistochemical SP method), drug-resistant Lewis lung cancer tumor tissue. It counts as in vivo. The settings on record: transplanted tumor tissues of drug-resistant Lewis lung cancer in mice, Example 3 regimen.
Text: as §2

Series [9] deals with Opdivo-resistant B16 melanoma. Kind of series: Antitumor effect (tumor volume, weight, inhibition rate) in Opdivo-resistant B16 melanoma mice. Type of series: in vivo. Particulars: for Tumor volume (cm^3): 30 mg/kg i.p. once a day, + Opdivo groups: test drug 5 days, then Opdivo 30 mg/kg every other day; for Tumor inhition rate (%) / Tumor weight: 30 mg/kg i.p., + Opdivo groups 30 + 30 mg/kg. On the procedure: The concentration of cell lines was adjusted to 1×10^7/ml with the culture medium. 1×10^7/ml of cells were subcutaneously injected into the right armpit of mice, 0.1 ml per mouse.
The model mice were randomly divided into groups, eight for one group, and included test drug group 1, test drug group 2, test drug group 3, test drug group 4, positive drug Opdivo group, single drug chlorogenic acid group, test drug 1+Opdivo group, test drug 2+Opdivo group, test drug 3+Opdivo group, test drug 4+Opdivo group, and negative group, respectively.
Test drug group: from the second day after stopping administration to the model, the group received drug by intraperitoneal injection, once a day, 30 mg/kg.
Single drug group: from the second day after stopping administration to the model, the group received drug by intraperitoneal injection, once a day, 30 mg/kg.
Test drug+Opdivo group: from the second day after stopping administration to the model, the group received the test drug by intraperitoneal injection, once a day, and the test drug was stopped after administrating for 5 consecutive days; on the next day, Opdivo was intraperitoneally injected, once every other day, with the dosage of 30 mg/kg.
Positive drug group: once every other day, 30 mg/kg.
Negative group: normal saline was intraperitoneally injected, once a day, the same amount of saline.
Before each administration, the tumor volume was measured, and the experiment was stopped when the average tumor volume of negative group was greater than 1.5 cm^3.
as §8

In series [10] the test system is drug-resistant A375 melanoma cell lines. Kind of series: Reversal of dacarbazine resistance in drug-resistant A375 cells (MTT). It counts as cell-based, human. Particulars: test drug 30 μg/ml; for Reversal index: IC50 before reversal/IC50 after reversal, drug-resistant A375. On the procedure: The culture and experimental methods of cells were the same as above.
In the experiment, there are following groups: drug-resistant cell negative group, drug-resistant cells+test drug group 1 (30 μg/ml), drug-resistant cells+test drug group 2 (30 μg/ml), drug-resistant cells+test drug group 3 ([…]), drug-resistant cells+test drug group 4 (30 μg/ml), drug-resistant cells+test drug group 5 (30 μg/ml), drug-resistant cells+test drug group 6 (30 μg/ml).
Each test drug group was added with different concentrations of dacarbazine, each concentration including 3 replicate wells, and the OD value of each well was measured, to observe whether the cytotoxicity was shown. Each test drug and dacarbazine were respectively used to act on drug resistant cells, so as to compare with the effects of dacarbazine administrated alone on drug-resistant cells, and the IC50 value of dacarbazine against drug-resistant cell lines was calculated, as well as the IC50 value of each test drug after reversing drug-resistant cell lines.
Reversal index=IC50 value before reversal/IC50 value after reversal.

In series [11] the test system is drug-resistant A549 lung cancer cell lines. Put plainly: MTT: non-cytotoxic concentration of test drugs, drug-resistant A549. The settings on record: 48 h. It counts as cell-based, human. On the procedure: The culture and treatment methods of cells and drug-resistant cells were the same as above. For the experiment, there were eight groups: blank group, control group and test-drug groups. […] The plates were placed in an incubator and incubated for 48 h, then 5 mg/ml MTT (20 μl) was added to each well, and the plate was further incubated for 4 h.

Series [12] deals with CD4+T and CD8+T lymphocytes. Put plainly: Number of CD4+T and CD8+T lymphocytes in transplanted tumor of multidrug-resistant Lewis lung cancer mice. Type of series: in vivo. The settings on record: average of 6 high power fields. On the procedure:
as §1

Series [13] relates to multi-drug resistant Lewis lung cancer. Kind of series: Tumor weight and inhibition rate, transplanted multi-drug resistant Lewis lung cancer. Type of series: in vivo, mice. The settings on record: multi-drug resistant Lewis lung cancer mice; test drug 30 mg/kg i.p. 5 days, then gemcitabine 300 mg/kg or dacarbazine 60 mg/kg every other day. On the procedure: Lewis lung cancer cell lines were induced by the increased gradient concentration of dacarbazine and gemcitabine, and established by clone screening, then cultured without drug before the experiment.
as §3, §4, §5, §6, §7, §8

Consider `O=C(/C=C/c1ccc(O)c(O)c1)O[C@@H]1C[C@](O)(C(=O)O)C[C@@H](O)[C@H]1O` [Chlorogenic acid, chlorogenic acid], for which, in [1], the “CD4 + T cells (number)” value came to 69.43 ± 4.72 and the “CD8 + T cells (number)” value amounted to 88.62 ± 5.38. Further, the “Expression rate of PD-1/PD-L1, Positive PD-L1” value (from here on “Expression rate of PD-1/PD-L1”) in the series with PD-1/PD-L1 [2] is 72.26%. Further, in [3], the “Tumor inhibition rate (%)” value worked out at 19.32% and the “Tumor weight (g)” value was 2.13 ± 0.52*Δ g. Also, in series [4], the “CD4 + T cells (number)” value was 66.52 ± 4.63 and the “CD8 + T cells (number)” value amounted to 119.38 ± 6.55. The “Expression rate of PD-1/PD-L1” value with PD-1/PD-L1 [5] is reported as 83.41%. Further, in the series on PD-1/PD-L1 [6], the “Expression rate of PD-1/PD-L1” value came out at 72.26%. Also, in series [7], the “CD4 + T cells (number)” value is listed as 80.63 ± 5.08 and the “CD8 + T cells (number)” value was 106.62 ± 6.88. For the same compound, the “Expression rate of PD-1/PD-L1” value in the series with PD-1/PD-L1 [8] was 81.83%. In series [9], the “continuous treatment effect / effect on tumor volume control (in words)” value is recorded as “not obvious”, the “Tumor volume (cm^3)” value turned out to be 1.788 ± 0.539 cm^3, the “Tumor inhition rate (%)” value worked out at 3.18% and the “Tumor weight” value was found to be 2.74 ± 0.59 g. In series [10], the Reversal index is listed as 1.17 and the “reversal effect on the drug-resistant A375 cell lines (in words)” value is reported as “no significant reversal effect”. Moreover, the “Non-cytotoxic concentration (all inhibition rates <10%)” value in series [11] amounted to 1256 µg/mL. Further, in series [12], the “CD4 + T cells (number)” value turned out to be 79.24 ± 4.06 and the “CD8 + T cells (number)” value is 126.52 ± 11.85. In [13], the “Tumor weight” value is 1.92 ± 0.69 g and the “Tumor-inhibition rate (%)” value amounted to 18.64%.
`O=C(/C=C/c1ccc(O)cc1)O[C@@H]1C[C@](O)(C(=O)O)C[C@@H](O)[C@H]1O` [Coumaroylquinic acid, coumaroylquinic acid]: the “CD4 + T cells (number)” value was 62.83 ± 7.51 in [1], 65.12 ± 5.17 in series [4], 78.75 ± 6.39 in series [7] and 79.11 ± 5.36 in series [12]. The “CD8 + T cells (number)” value in [1] turned out to be 91.53 ± 3.54; in series [4], 113.64 ± 8.23; in series [7], 98.53 ± 4.98; in series [12] it was 122.08 ± 14.36. Besides, the “Expression rate of PD-1/PD-L1” value in the series on PD-1/PD-L1 [2] came to 73.39%; in the series with PD-1/PD-L1 [5], 82.87%; in the series on PD-1/PD-L1 [6], 73.39%; with PD-1/PD-L1 [8] it was 79.23%. Also, the “Tumor inhibition rate (%)” value in series [3] is listed as 15.91%. Besides, the “Tumor weight” value in [3] stood at 2.22 ± 0.26 g; in series [9], 2.71 ± 0.46 g; in series [13], 2.15 ± 0.72 g. For the same compound, the “Tumor volume (cm^3)” value in [9] is 1.762 ± 0.947 cm^3. Besides, the “Tumor inhition rate (%)” value in series [9] came to 4.24%. Besides, in series [10], the Reversal index worked out at 1.06. Also, the “reversal effect on the drug-resistant A375 cell lines (in words)” value in series [10] is recorded as “no significant reversal effect”. For the same compound, the “Non-cytotoxic concentration (all inhibition rates <10%)” value in [11] came out at 1142 µg/mL. Also, the “Tumor-inhibition rate (%)” value in [13] was 8.90%.
